PubChem BioAssay (NCI)
“And” between values parts separate entries of the source, which are not always exact repeats. Equal values may be shown once.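 Five concentrations, 48 hours, 96-well plates. At the GI50, growth is halved. The concentration for full growth arrest is given as TGI.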

Legend:
Experiment in all cases: NCI-60 cell line screen, 48 h
786-0 renal = system: 786-0 renal
COLO 205 colon = system: COLO 205 colon
EKVX NSCLC = system: EKVX NSCLC
HCT-116 colon = system: HCT-116 colon
HS 578T breast = system: HS 578T breast
MDA-MB-435 = system: MDA-MB-435
OVCAR-3 ovarian = system: OVCAR-3 ovarian
SF-539 CNS = system: SF-539 CNS
SK-MEL-5 melanoma = system: SK-MEL-5 melanoma
SN12C renal = system: SN12C renal

Compound	GI50 (786-0 renal)	TGI (786-0 renal)	GI50 (COLO 205 colon)	TGI (COLO 205 colon)	GI50 (EKVX NSCLC)	TGI (EKVX NSCLC)	GI50 (HCT-116 colon)	TGI (HCT-116 colon)	GI50 (HS 578T breast)	TGI (HS 578T breast)	GI50 (MDA-MB-435)	TGI (MDA-MB-435)	GI50 (OVCAR-3 ovarian)	TGI (OVCAR-3 ovarian)	GI50 (SF-539 CNS)	TGI (SF-539 CNS)	GI50 (SK-MEL-5 melanoma)	TGI (SK-MEL-5 melanoma)	GI50 (SN12C renal)	TGI (SN12C renal)
c1ccc2c3c([nH]c2c1)C(c1ccc(C2NCCc4c2[nH]c2ccccc42)cc1)NCC3 (centres undefined)	1.75 µM	3.38 µM	0.204 µM	0.459 µM	1.42 µM	3.39 µM	0.17 µM	0.335 µM	1.43 µM	3.82 µM	359 nM	1.27 µM	1.24 µM	2.6 µM	1.62 µM	3.04 µM	1.7 µM	3.13 µM	1.47 µM	3.05 µM
CC[n+]1c(/C=C/C=C2\N(C)c3ccccc3C2(C)C)sc2ccccc21	4.33 µM	8.38 µM	4.47 µM	9.13 µM	4.39 µM	12.8 µM	4.15 µM	8.16 µM	5.63 µM	20.1 µM	3980 nM	7.66 µM	3.97 µM	7.52 µM	4 µM	7.5 µM	3.79 µM	7.33 µM	4.16 µM	8 µM
CC1=C(Nc2ccc(N3CCN(C)CC3)cc2)C(=O)c2cncnc2C1=O	20.4 µM	52.5 µM	15.8 µM	33.1 µM	5.63 µM	19.1 µM	2.48 µM	6.13 µM	19.5 µM	55.1 µM	1870 nM	3.4 µM	1.97 µM	4.28 µM	13.5 µM	26.9 µM	14.4 µM	27.6 µM	2.02 µM	4.48 µM
CC[C@H](C)[C@H](NC(=O)[C@H]1CCCCN1C)C(=O)N(C)[C@H](C[C@@H](OC(C)=O)c1nc(C(=O)N[C@@H](Cc2ccccc2)C[C@H](C)C(=O)O)cs1)C(C)C	0.000943 µM and 0.00165 µM	> 16.5 µM	0.000394 µM	0.00275 µM	0.000979 µM and 0.00165 µM	> 16.5 µM	0.000404 µM and 0.00165 µM	0.017 µM	0.00101 µM and 0.00165 µM	> 16.5 µM	0.0749 nM and < 1.65 nM	0.000386 µM and < 0.00165 µM	0.000234 µM and < 0.00165 µM	0.0119 µM and < 0.00165 µM	0.000576 µM and < 0.00165 µM	0.00596 µM and < 0.00165 µM	0.00013 µM and < 0.00165 µM	0.0102 µM and < 0.00165 µM	0.003 µM and 0.00165 µM	> 16.5 µM
COc1cc2c3c(n(C)c(=O)c2cc1OC)-c1ccc(C#N)cc1C3=O	> 100 µM	> 100 µM	> 100 µM	> 100 µM	> 100 µM	> 100 µM	> 100 µM	> 100 µM	> 100 µM	> 100 µM	> 100000 nM	> 100 µM	> 100 µM	> 100 µM	> 100 µM	> 100 µM	> 100 µM	> 100 µM	> 100 µM	> 100 µM
COc1ccc(N=N/C(C(=O)C(F)(F)F)=C(\O)c2ccc(Cl)cc2)cc1	6.63 µM	83.6 µM	11.3 µM	25.1 µM	9.09 µM	22.3 µM	6.64 µM	26.2 µM	11.2 µM	76.2 µM	2490 nM	8.77 µM	7.21 µM	35.4 µM	6.33 µM	39.8 µM	3.63 µM	14.3 µM	16.6 µM	> 100 µM
CCN1CCN(C(=O)[C@]23CCC(C)(C)C[C@@H]2C2=CC[C@@H]4[C@@]5(C)C/C(=C/c6ccncc6)C(=O)C(C)(C)[C@@H]5CC[C@@]4(C)[C@]2(C)CC3)CC1	1.68 µM	3.15 µM	1.64 µM	3.64 µM	1.49 µM	3.01 µM	1.35 µM	2.87 µM	1.58 µM	4.16 µM	1410 nM	2.81 µM	1.49 µM	2.91 µM	1.64 µM	3.04 µM	1.6 µM	2.99 µM	1.31 µM	2.66 µM
CCc1nc(N)nc(N)c1-c1ccc(N2CCNCC2)cc1		> 100 µM		41.1 µM		> 100 µM		> 100 µM		> 100 µM		> 100 µM		> 100 µM		> 100 µM		40.9 µM		> 100 µM
c1cc2c(cn1)Nc1ccncc1S2	23.7 µM	78.1 µM	11.8 µM	59.5 µM	55.8 µM	> 100 µM	17.9 µM	69.5 µM	29.6 µM	> 100 µM	73900 nM	> 100 µM	83 µM	> 100 µM	33.8 µM	> 100 µM	36.3 µM	> 100 µM	69.4 µM	> 100 µM
O=C1/C=C/[C@@H](O)[C@@H]2C[C@@H](O)C[C@H]2/C=C/CCC[C@H](C(F)(F)F)O1	0.126 µM	0.469 µM	0.0381 µM	0.15 µM	1.33 µM	> 100 µM	0.153 µM	0.385 µM	0.347 µM	> 100 µM	360 nM	> 44.5 µM	0.103 µM	0.464 µM	0.504 µM	> 100 µM	0.128 µM	0.32 µM	0.779 µM	13.8 µM
CCCCCCCCCCCCCC[C@@H](O)[C@H]1CC[C@H]([C@H]2CC[C@H]([C@H](O)CCCCCC[C@@H](O)CC3=C[C@H](C)OC3=O)O2)O1	4.31 µM	> 25 µM	1.52 µM	3.06 µM and > 25 µM	1.68 µM	9.27 µM and > 25 µM	2.2 µM	> 25 µM	> 25 µM	3.15 µM and > 25 µM		> 25 µM	1.53 µM	3.21 µM and > 25 µM	2.25 µM	6.85 µM and > 25 µM	0.717 µM	2.52 µM and > 25 µM	> 25 µM	6.47 µM and > 25 µM
CN1CCN(CCCOc2cccc3nc(Nc4ccc(Cl)c(C(F)(F)F)c4)ccc23)CC1	1.5 µM	2.89 µM	1.72 µM	3.35 µM	1.82 µM	3.98 µM	1.5 µM	2.84 µM	2 µM	4.66 µM	1680 nM	3.23 µM	1.81 µM	3.31 µM	1.58 µM	3.02 µM	1.69 µM	3.13 µM	1.6 µM	3.38 µM
